Experiments:
[1] = Molar enthalpy of transition or fusion; settings: Crystal; DSC

O=C(O)c1c(O)cccc1O [2,6-dihydroxybenzoic acid]
Settings | vapor or sublimation pressure [kPa]
346 K, Crystal, Torsion effusion method | 9.9e-05
347 K, Crystal, Torsion effusion method | 0.000113
351.5 K, Crystal, Torsion effusion method | 0.00017
353.3 K, Crystal, Torsion effusion method | 0.000216
354 K, Crystal, Torsion effusion method | 0.000223
355 K, Crystal, Torsion effusion method | 0.000248
357 K, Crystal, Torsion effusion method | 0.000307
358 K, Crystal, Torsion effusion method | 0.000341
360.5 K, Crystal, Torsion effusion method | 0.000443
361 K, Crystal, Torsion effusion method | 0.000467
361.5 K, Crystal, Torsion effusion method | 0.000492
363 K, Crystal, Torsion effusion method | 0.000574
363.5 K, Crystal, Torsion effusion method | 0.000604
365 K, Crystal, Torsion effusion method | 0.000704
366 K, Crystal, Torsion effusion method | 0.000779
367 K, Crystal, Torsion effusion method | 0.000851
367.5 K, Crystal, Torsion effusion method | 0.0009
369 K, Crystal, Torsion effusion method | 0.001031
454.2 K, Liquid, Non-isothermal TG | 0.643
454.7 K, Liquid, Non-isothermal TG | 0.681
455.7 K, Liquid, Non-isothermal TG | 0.722
456.7 K, Liquid, Non-isothermal TG | 0.754
457.7 K, Liquid, Non-isothermal TG | 0.804
458.7 K, Liquid, Isothermal TG | 0.809
458.7 K, Liquid, Non-isothermal TG | 0.853
459.1 K, Liquid, Isothermal TG | 0.829
459.2 K, Liquid, Isothermal TG | 0.848
459.7 K, Liquid, Non-isothermal TG | 0.904
459.8 K, Liquid, Isothermal TG | 0.868
460.2 K, Liquid, Isothermal TG | 0.887
460.6 K, Liquid, Isothermal TG | 0.907
460.7 K, Liquid, Isothermal TG | 0.928
460.8 K, Liquid, Non-isothermal TG | 0.954
461 K, Liquid, Isothermal TG | 0.928
461.5 K, Liquid, Isothermal TG | 0.948
461.8 K, Liquid, Non-isothermal TG | 1.006
461.9 K, Liquid, Isothermal TG | 0.968
462 K, Liquid, Isothermal TG | 0.979
462.7 K, Liquid, Isothermal TG | 1
462.7 K, Liquid, Non-isothermal TG | 1.056
463.1 K, Liquid, Isothermal TG | 1.027
463.5 K, Liquid, Isothermal TG | 1.048
463.6 K, Liquid, Isothermal TG | 1.055
463.8 K, Liquid, Non-isothermal TG | 1.077
464.3 K, Liquid, Isothermal TG | 1.087
464.7 K, Liquid, Isothermal TG | 1.108
464.8 K, Liquid, Non-isothermal TG | 1.121
465.1 K, Liquid, Isothermal TG | 1.113
465.2 K, Liquid, Isothermal TG | 1.14
465.8 K, Liquid, Non-isothermal TG | 1.175
465.9 K, Liquid, Isothermal TG | 1.167
466.3 K, Liquid, Isothermal TG | 1.187
466.7 K, Liquid, Isothermal TG | 1.208
466.8 K, Liquid, Isothermal TG | 1.227
466.8 K, Liquid, Non-isothermal TG | 1.22
467.5 K, Liquid, Isothermal TG | 1.248
467.8 K, Liquid, Non-isothermal TG | 1.313
467.9 K, Liquid, Isothermal TG | 1.267
468.3 K, Liquid, Isothermal TG | 1.288
468.4 K, Liquid, Isothermal TG | 1.307
468.8 K, Liquid, Non-isothermal TG | 1.364
469.1 K, Liquid, Isothermal TG | 1.328
469.5 K, Liquid, Isothermal TG | 1.348
469.8 K, Liquid, Non-isothermal TG | 1.412
470 K, Liquid, Isothermal TG | 1.381
470.1 K, Liquid, Isothermal TG | 1.389
470.8 K, Liquid, Isothermal TG | 1.434
470.8 K, Liquid, Non-isothermal TG | 1.464
471.2 K, Liquid, Isothermal TG | 1.442
471.6 K, Liquid, Isothermal TG | 1.472
471.7 K, Liquid, Isothermal TG | 1.509
471.7 K, Liquid, Non-isothermal TG | 1.51
472.5 K, Liquid, Isothermal TG | 1.546
472.7 K, Liquid, Non-isothermal TG | 1.557
473.7 K, Liquid, Non-isothermal TG | 1.644
474.8 K, Liquid, Non-isothermal TG | 1.761
475.7 K, Liquid, Non-isothermal TG | 1.829
476.7 K, Liquid, Non-isothermal TG | 1.847

Settings | Normal melting temperature [°C]
Crystal, DTA | 170.6

Settings | Molar enthalpy of transition or fusion [kJ/mol]
[1] | 25
